How the values were obtained:
Format in all cases: in vivo
[1] = test system: Amaranthus retroflexus (AMARE); test: Post-emergence herbicidal efficacy at 320 g/ha, greenhouse pot test; settings: visual rating vs untreated control after about 3 weeks
Procedure: (§1) Seeds of mono- and dicotyledonous weed plants were placed in plastic pots in sandy loam soil (doubly sown with in each case one species of mono- or dicotyledonous weed plants per pot), covered with soil and cultivated in a greenhouse under controlled growth conditions. 2 to 3 weeks after sowing, the test plants were treated at the one-leaf stage. The compounds of the invention, formulated in the form of wettable powders (WP) or as emulsion concentrates (EC), were applied onto the green parts of the plants as aqueous suspension or emulsion with addition of 0.5% additive at a water application rate of 600 liters per hectare (converted). After the test plants had been kept in the greenhouse under optimum growth conditions for about 3 weeks, the activity of the preparations was rated visually in comparison to untreated controls. For example, 100% activity=the plants have died, 0% activity=like control plants. Tables […] 11 below show the effects of selected compounds of the general formula (I) according to Table 1 on various harmful plants and an application rate corresponding to 320 g/ha, which were obtained by the experimental procedure mentioned above.

Veronica persica (VERPE) [2] = test: as above; settings: 320 g/ha, visual rating vs untreated control after about 3 weeks
Procedure: as §1

Bassia scoparia (KCHSC) = test: Pre-emergence herbicide efficacy at 320 g/ha, greenhouse pot test; settings: dosage 1280 g/ha in Table C6, visual scoring after about 3 weeks
Description: (§2) Seeds of mono- and dicotyledonous weed plants were placed in plastic pots in sandy loam soil (doubly sown with in each case one species of mono- or dicotyledonous weed plants per pot) and covered with soil. The compounds of the invention, formulated in the form of wettable powders (WP) or as emulsion concentrates (EC), were then applied onto the surface of the covering soil as aqueous suspension or emulsion with addition of 0.5% additive at a water application rate of 600 liters per hectare (converted). After the treatment, the pots were placed in a greenhouse and kept under good growth conditions for the test plants. After about 3 weeks, the effect of the preparations was scored visually in comparison with untreated controls as percentages. For example, 100% activity=the plants have died, 0% activity=like control plants. Tables C1 to C12 below show the effects of selected compounds of the general formula (I) according to Table 1 on various harmful plants and an application rate corresponding to 320 g/ha, which were obtained by the experimental procedure mentioned above.

Stellaria media (STEME) [3] = test: Post-emergence herbicidal efficacy at 320 g/ha, greenhouse pot test; settings: visual rating vs untreated control after about 3 weeks
Procedure: as §1

Stellaria media (STEME) [4] = test: Pre-emergence herbicide efficacy at 320 g/ha, greenhouse pot test; settings: visual scoring vs untreated control after about 3 weeks
Description: as §2

Poa annua (POAAN) [5] = test: Post-emergence herbicidal efficacy at 320 g/ha, greenhouse pot test; settings: visual rating vs untreated control after about 3 weeks
Procedure: as §1

Poa annua (POAAN) [6] = test: Pre-emergence herbicide efficacy at 320 g/ha, greenhouse pot test; settings: visual scoring vs untreated control after about 3 weeks
Description: as §2

[7] = test system: Amaranthus retroflexus (AMARE); test: as above; settings: visual scoring vs untreated control after about 3 weeks
Description: as §2

Setaria viridis (SETVI) = test: as above; settings: visual scoring vs untreated control after about 3 weeks
Description: as §2

[8] = test system: Matricaria inodora (MATIN); test: as above; settings: visual scoring vs untreated control after about 3 weeks
Description: as §2

[9] = test system: Echinochloa crus-galli (ECHCG); test: as above; settings: visual scoring vs untreated control after about 3 weeks
Description: as §2

Veronica persica (VERPE) [10] = test: as above; settings: visual scoring vs untreated control after about 3 weeks
Description: as §2

[11] = test system: Abutilon theophrasti (ABUTH); test: as above; settings: visual scoring vs untreated control after about 3 weeks
Description: as §2

[12] = test system: Abutilon theophrasti (ABUTH); test: Post-emergence herbicidal efficacy at 320 g/ha, greenhouse pot test; settings: visual rating vs untreated control after about 3 weeks
Procedure: as §1

Compound | Post-emergence efficacy against Amaranthus retroflexus (AMARE) [1] | Post-emergence efficacy against Veronica persica (VERPE) (Veronica persica (VERPE) [2]) | Pre-emergence efficacy against Bassia scoparia (KCHSC) (Bassia scoparia (KCHSC)) | Post-emergence action against Stellaria media (STEME) (Stellaria media (STEME) [3]) | Pre-emergence efficacy against Stellaria media (STEME) (Stellaria media (STEME) [4]) | Post-emergence efficacy against Poa annua (POAAN) (Poa annua (POAAN) [5]) | Pre-emergence efficacy against Poa annua (POAAN) (Poa annua (POAAN) [6]) | Pre-emergence efficacy against Amaranthus retroflexus (AMARE) [7] | Pre-emergence efficacy against Setaria viridis (SETVI) (Setaria viridis (SETVI)) | Pre-emergence efficacy against Matricaria inodora (MATIN) [8] | Pre-emergence efficacy against Echinochloa crus-galli (ECHCG) [9] | Pre-emergence efficacy against Veronica persica (VERPE) (Veronica persica (VERPE) [10]) | Pre-emergence efficacy against Abutilon theophrasti (ABUTH) [11] | Post-emergence efficacy against Abutilon theophrasti (ABUTH) [12]
Cc1cc(C)c(-c2cc(C(F)F)no2)c(Oc2ncc(Br)cc2C#N)n1 [Example I-291] | 90% | 90% | 90% | – | – | – | – | – | – | – | – | – | – | –
Cc1cc(C)c(-c2cc(CC3CC3)no2)c(Oc2ncc(Br)cn2)n1 [Example I-300] | – | – | – | 90% | 90% | – | – | – | – | – | – | – | – | –
Cc1cc(C)c(-c2cc(C(F)F)no2)c(Oc2ncc(Cl)cc2Cl)n1 [Example I-288] | 100% | 90% | 90% | 90% | 90% | 90% | 90% | – | – | – | – | – | – | –
Cc1cc(C)c(-c2cc(CC3CC3)no2)c(Oc2ncc(Cl)cc2F)n1 [Example I-202] | – | – | – | 90% | 100% | 100% | – | 90% | – | – | – | – | – | –
Cc1cc(C)c(-c2cc(C3CC3)no2)c(Oc2ncc(Br)cn2)n1 [Example I-296] | 90% | 100% | 100% | 100% | 100% | 90% | 100% | 100% | 100% | 100% | 90% | 90% | 100% | –
Cc1cc(C)c(-c2cc(CC3CC3)no2)c(Oc2ncc(Cl)cn2)n1 [Example I-201] | – | 90% | 90% | 90% | 90% | – | 100% | 90% | – | – | – | – | 90% | 90%
Cc1cc(C)c(-c2cc(C3(C)CC3)no2)c(Oc2ncc(Cl)cc2F)n1 [Example I-301] | – | 90% | – | 90% | – | – | – | – | – | – | – | – | – | –
Cc1cc(C)c(-c2cc(C(F)F)no2)c(Oc2ncc(F)cc2C#N)n1 [Example I-289] | 100% | 90% | 90% | 90% | 90% | 90% | – | – | – | – | – | – | – | –
Cc1cc(C)c(-c2cc(C(F)F)no2)c(Oc2ncc(C#N)cn2)n1 [Example I-46] | 100% | 100% | 90% | 100% | 90% | 90% | – | 90% | – | 100% | – | – | 90% | –
Cc1cc(C)c(-c2cc(C3CC3)no2)c(Oc2ncc(Cl)cc2F)n1 [Example I-180] | – | 90% | – | 100% | 100% | – | 100% | 100% | – | 100% | – | – | – | –

From US20230303549A1, “SUBSTITUTED HETEROARYLOXYPYRIDINES, THE SALTS THEREOF AND THEIR USE AS HERBICIDAL AGENTS” (Bayer Aktiengesellschaft, priority 2020, published 2023)
